# Experimental data: ChEMBL document CHEMBL6153098, “Immunomodulatory Potential of a Bibenzyl-dihydrophenanthrene Derivative Isolated from Calanthe cardioglossa” (J Nat Prod, 2025)
# Active and inactive are the calls of the source. The calls are words filed in the database; no cut-off is given here.
# Key:
# THP-1 [1] = experiment: Cytotoxicity against human THP-1 cells assessed as cell viability at 10 uM incubated for 4 hrs by PrestoBlue cell viability assay; type: toxicity, cell-based; details: thp-1, 4 h
# THP-1 [2] = experiment: Immunomodulatory activity in human THP-1 cells assessed as reduction in LPS-induced TNF-alpha production at 10 uM incubated for 4 hrs by ELISA assay; type: functional, cell-based
# PBMC = experiment: Immunomodulatory activity in multiple sclerosis pateint-derived human PBMC cells assessed as reduction in LPS-induced TNF-alpha production in CD14+ monocytes at 10 uM incubated for 4 hrs by flow cytometry assay; type: functional, cell-based
SMILES,Activity (THP-1 [1]),Activity (THP-1 [2]),Activity (PBMC)
COc1cc(O)cc2c1-c1ccc(O)cc1CC2,Non-toxic,inactive,–
COc1cc([C@H]2Oc3cc4c(cc3[C@@H]2CO)-c2c(cc(O)cc2OC)CC4)ccc1O,Non-toxic,–,–
COc1cc(O)c2c(c1)CCc1cc(O)c(-c3c(O)cc(OC)c4c3CCc3cc(O)ccc3-4)cc1-2,Non-toxic,Active,–
COc1cc(C2Oc3cc(OC)c4c(c3C2COC(C)=O)CCc2cc(O)ccc2-4)ccc1O (stereo unspecified),Non-toxic,–,–
COc1cc(O)c2c(c1)CCc1cc(O)ccc1-2,–,Active,–
O=c1c2ccccc2ncn1-c1ccccc1O,Non-toxic,–,–
COc1cc(O)cc(CCc2cccc(O)c2)c1 [BATATASIN III],Non-toxic,Active,–
COc1cc(O)cc(CCc2ccc(O)c(OC)c2)c1 [GIGANTOL],Non-toxic,Active,–
COc1cccc(CCc2cc(OC)cc(O)c2-c2cc3c(cc2O)CCc2cc(OC)cc(O)c2-3)c1,Non-toxic,Active; Compound Exhibited The Most Pronounced Activity,Active
COc1cc(O)cc2c1-c1cc(-c3c(O)cc(OC)c4c3CCc3cc(O)ccc3-4)c(O)cc1CC2,Non-toxic,–,–
